For 2 compounds, ED50 results are on record in US4232166A, “15-Deoxy-16-hydroxy-17-methylene prostaglandins of the E and F series” (American Cyanamid Company, priority 1979, dated 1980).

Holding throughout (format): in vivo
The test system of assay [1] is bronchospasms elicited by histamine. The experiment in a line: Konzett procedure: bronchodilator activity in Guinea-Pigs against bronchospasms elicited by intravenous histamine. Particulars: Cavia porcellus, three logarithmic cumulative intravenous doses. As to the method:
(§1) The bronchodilator activity for representative compounds of this invention was determined in Guinea-Pigs against bronchospasms elicited by intravenous injections of serotonin, histamine, and acetylcholine, by the Konzett procedure the details of which are those discussed by J. Lulling, P Lievens, F. El Sayed and J. Prignot, Arzeimittel-Forschung 18, 995 (1968).
(§2) In the table which follows, bronchodilator activity for representative compounds of the invention against spasmogenic agents serotonin, histamine, and acetylcholine is expressed as an ED50 determined from the results obtained with three logarithmic cumulative intravenous doses.

The test system of assay [2] is bronchospasms elicited by acetylcholine. The experiment in a line: Konzett procedure: bronchodilator activity in Guinea-Pigs against bronchospasms elicited by intravenous acetylcholine. The settings on record: Cavia porcellus, three logarithmic cumulative intravenous doses, read-out: ED50 ACETYL CHOLINE. As to the method: as §1, §2
Assay [3] relates to bronchospasms elicited by serotonin. The experiment in a line: Konzett procedure: bronchodilator activity in Guinea-Pigs against bronchospasms elicited by intravenous serotonin. Particulars: Cavia porcellus, three logarithmic cumulative intravenous doses. As to the method: as §1, §2

Regarding `C=C(CCC)C(C)(O)C/C=C/[C@H]1[C@H](O)CC(=O)[C@@H]1C/C=C\CCCC(=O)O` (relative stereo) [dl 9-oxo-11α,16-dihydroxy-16-methyl-17-methylene-5-cis,13-trans-prostadienoic acid], the ED50 was determined as 1.2 µg/kg in assay [1], 3.6 µg/kg in assay [2] and 2.5 µg/kg in assay [3].

Regarding `C=C(CCC)C(O)C/C=C/[C@H]1[C@H](O)CC(=O)[C@@H]1C/C=C\CCCC(=O)O` (relative stereo) [dl 9-oxo-11α,16-dihydroxy-17-methylene-5-cis, 13-trans-prostadienoic acid], the ED50 in assay [1] is 10.6 µg/kg; in assay [2], 24 µg/kg; in assay [3] it was 5.4 µg/kg.

Usually ED50 stands for the midpoint of the dose-response relation.
